Experimental data reported in patent US10010525B2, “Methods of inducing anesthesia” (The Regents of the University of California, priority 2012, dated 2018).
Where two headings read alike, the source gives them in different places.

Assays:
[1] = Loss of righting reflex in Sprague-Dawley rats (inhaled agent); type: in vivo
Method: 1,1,2,2,3,3,4,5-octafluorocyclopentane (CAS#828-35-3) caused a loss of righting reflex in 4 healthy Sprague-Dawley rats at a concentration of 3.3±0.4 (mean±SD) percent of 1 atmosphere. […] After discontinuing the agent, rats were awake and ambulatory in less than 1 minute. […] Despite a lack of NMDA receptor effects, 1,1,2,2,3,3,4,5-octafluorocyclopentane is able to produce the desired pharmacologic endpoints of unconsciousness and immobility that appears similar to desirable effects produced by conventional agents.

glycine receptors = assay: Glycine receptor modulation in vitro; type: cell-based
[2] = target: T1, GABAA (α1β2γ2s) receptors (UniProt P14867+P18508+P63138); assay: GABAA receptor two-electrode voltage clamp in oocytes at saturated drug concentration; type: cell-based, human α1, rat β2 and γ2s; conditions: saturating aqueous concentration
T1 construct: expressed in transfected cells; host or cells: Xenopus laevis oocytes (intranuclear plasmid injection, α1:β2:γ2 = 1:1:10)
T1 sequence (P14867 28-456): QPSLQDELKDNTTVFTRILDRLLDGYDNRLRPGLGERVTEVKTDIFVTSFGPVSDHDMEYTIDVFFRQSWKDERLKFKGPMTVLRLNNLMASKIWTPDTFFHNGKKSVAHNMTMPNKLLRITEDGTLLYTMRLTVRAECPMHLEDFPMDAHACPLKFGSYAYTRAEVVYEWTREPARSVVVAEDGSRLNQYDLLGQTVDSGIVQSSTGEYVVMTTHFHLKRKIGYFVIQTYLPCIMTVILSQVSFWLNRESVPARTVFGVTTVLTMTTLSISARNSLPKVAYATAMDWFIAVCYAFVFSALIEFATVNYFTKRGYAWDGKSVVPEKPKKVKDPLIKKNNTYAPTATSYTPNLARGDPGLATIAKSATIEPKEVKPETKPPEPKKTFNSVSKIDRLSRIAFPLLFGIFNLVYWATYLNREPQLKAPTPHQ
T1 sequence (P63138 25-474 limits assumed): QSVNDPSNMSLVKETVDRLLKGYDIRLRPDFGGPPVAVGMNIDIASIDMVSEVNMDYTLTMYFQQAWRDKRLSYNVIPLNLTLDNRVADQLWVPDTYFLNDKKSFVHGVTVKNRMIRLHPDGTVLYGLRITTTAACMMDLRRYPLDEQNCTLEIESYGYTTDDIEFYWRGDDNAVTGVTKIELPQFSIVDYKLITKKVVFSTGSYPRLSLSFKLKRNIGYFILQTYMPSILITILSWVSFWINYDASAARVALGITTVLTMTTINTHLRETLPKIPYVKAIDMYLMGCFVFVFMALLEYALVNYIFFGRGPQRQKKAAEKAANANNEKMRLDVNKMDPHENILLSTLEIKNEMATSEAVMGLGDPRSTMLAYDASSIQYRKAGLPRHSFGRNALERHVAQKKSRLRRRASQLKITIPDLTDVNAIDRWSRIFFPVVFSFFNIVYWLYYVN
T1 sequence (P18508 39-466): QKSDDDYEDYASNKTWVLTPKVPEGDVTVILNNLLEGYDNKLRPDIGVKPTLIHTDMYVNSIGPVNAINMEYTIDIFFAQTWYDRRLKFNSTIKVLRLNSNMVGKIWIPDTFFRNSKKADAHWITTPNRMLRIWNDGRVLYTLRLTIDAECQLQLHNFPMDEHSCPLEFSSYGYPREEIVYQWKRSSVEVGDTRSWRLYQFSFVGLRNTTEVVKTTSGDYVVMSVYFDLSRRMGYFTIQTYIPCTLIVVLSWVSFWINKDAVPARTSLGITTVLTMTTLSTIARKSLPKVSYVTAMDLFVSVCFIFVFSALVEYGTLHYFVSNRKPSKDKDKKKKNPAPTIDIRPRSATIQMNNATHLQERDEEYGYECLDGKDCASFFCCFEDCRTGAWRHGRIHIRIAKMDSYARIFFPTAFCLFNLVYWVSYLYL

[3] = target: T2, NMDA (NR1/NR2A) receptors (Rattus norvegicus, UniProt P35439+Q00959); assay: NMDA receptor two-electrode voltage clamp in oocytes at saturated drug concentration; type: cell-based; conditions: saturating aqueous concentration
T2 construct: expressed in transfected cells; host or cells: Xenopus laevis oocytes (RNA injection, 1:1)
T2 sequence (Q00959 23-1464, other chains not shown): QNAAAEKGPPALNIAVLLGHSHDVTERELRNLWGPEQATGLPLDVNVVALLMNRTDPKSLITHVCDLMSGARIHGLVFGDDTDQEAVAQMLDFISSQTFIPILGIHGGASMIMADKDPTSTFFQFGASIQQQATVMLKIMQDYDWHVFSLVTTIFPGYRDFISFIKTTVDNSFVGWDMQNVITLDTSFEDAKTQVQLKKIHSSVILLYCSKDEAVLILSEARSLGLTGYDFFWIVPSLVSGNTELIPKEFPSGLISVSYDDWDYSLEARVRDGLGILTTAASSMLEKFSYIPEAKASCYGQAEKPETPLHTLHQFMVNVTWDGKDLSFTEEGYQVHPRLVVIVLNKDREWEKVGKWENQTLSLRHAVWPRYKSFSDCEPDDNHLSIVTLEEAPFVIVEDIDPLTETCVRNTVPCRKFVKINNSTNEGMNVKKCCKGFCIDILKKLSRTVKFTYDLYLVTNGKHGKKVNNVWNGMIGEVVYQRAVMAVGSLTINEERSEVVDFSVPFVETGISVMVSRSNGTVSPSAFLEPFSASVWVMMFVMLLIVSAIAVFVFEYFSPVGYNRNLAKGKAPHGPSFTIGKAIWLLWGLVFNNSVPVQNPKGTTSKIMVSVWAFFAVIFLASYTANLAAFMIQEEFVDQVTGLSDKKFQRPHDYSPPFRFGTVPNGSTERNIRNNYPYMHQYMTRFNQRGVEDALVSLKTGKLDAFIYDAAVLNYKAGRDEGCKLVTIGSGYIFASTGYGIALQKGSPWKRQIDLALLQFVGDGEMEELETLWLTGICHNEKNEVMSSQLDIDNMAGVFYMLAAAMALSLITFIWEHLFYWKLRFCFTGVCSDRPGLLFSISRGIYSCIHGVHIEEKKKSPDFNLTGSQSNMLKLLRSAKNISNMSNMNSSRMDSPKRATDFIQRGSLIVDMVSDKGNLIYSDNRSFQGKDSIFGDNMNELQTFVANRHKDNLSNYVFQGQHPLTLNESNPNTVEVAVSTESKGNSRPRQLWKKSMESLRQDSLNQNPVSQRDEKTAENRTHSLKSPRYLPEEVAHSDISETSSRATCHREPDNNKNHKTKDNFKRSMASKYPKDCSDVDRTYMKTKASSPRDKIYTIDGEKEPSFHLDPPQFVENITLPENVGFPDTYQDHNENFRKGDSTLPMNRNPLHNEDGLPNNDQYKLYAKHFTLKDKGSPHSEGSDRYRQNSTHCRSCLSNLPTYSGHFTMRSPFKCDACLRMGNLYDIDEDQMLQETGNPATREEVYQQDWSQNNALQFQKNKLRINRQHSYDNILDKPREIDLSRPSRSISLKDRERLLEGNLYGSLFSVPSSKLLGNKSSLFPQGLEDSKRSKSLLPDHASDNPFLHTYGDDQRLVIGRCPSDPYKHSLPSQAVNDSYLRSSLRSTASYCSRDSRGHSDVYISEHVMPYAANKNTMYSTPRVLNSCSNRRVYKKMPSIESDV

[4] = system: inhibitory potassium channels; assay: Inhibitory potassium channel modulation in vitro; type: cell-based; conditions: some inhibitory potassium channels
[5] = Loss of righting reflex in mice (inhaled agent); type: in vivo
Method: (§1) HFCP caused loss of righting reflex (a surrogate measure of unconsciousness) in 4 healthy ND4 mice at 1.0±0.2 (mean±SD) percent of 1 atmosphere. […] After 2 hours of anesthesia, mice were awake after about 1 minute of discontinuing HFCP administration. […] Despite a lack of NMDA receptor effects, 1,1,2,2,3,3,4-heptafluorocyclopentane is able to produce the desired pharmacologic endpoints of unconsciousness and immobility that appears similar to desirable effects produced by conventional agents.

[6] = aqueous phase; Tadpole; cited from earlier work
[7] = system: 3-transmembrane (TM3) and 4-transmembrane (TM4) receptors; conditions: grouped by calculated molar solubility in unbuffered water at 25° C.; cited from earlier work
[8] = Histopathology of heart, lung, kidney and liver tissues after anesthesia; type: in vivo, ND4 mice; conditions: collected 2 days later
Method: as §1

Stability in soda lime = type: physicochemical
From the text: Divalent bases (and sometimes monovalent bases) are used for CO2 absorption in anesthetic circuits; clinically-useful agents must therefore be stable in the presence of strong bases. […] Anesthetics should also be resistant to hydrolysis and redox reactions in vivo. Compounds with ester linkages can be thermally unstable or hydrolysed by plasma and tissue cholinesterases; and those compounds resistant to hydrolysis may likely cause undesirable inhibition of these enzymes (which are essential for metabolism of other drugs). Therefore, compounds with ester linkages are not preferred. Anesthetics with non-aromatic unsaturated carbon linkages have been used historically (fluroxene, isopropenyl vinyl ether, trichloroethylene, vinethylene, ethylene) and shown to undergo extensive metabolism that for some agents was associated with toxicity. Agents containing double or triple carbon bonds are not preferred.

[9] = aqueous phase; Human; cited from earlier work
GABAA receptor = conditions: 365 μM ketamine; cited from earlier work
[10] = read-out: Aqueous EC50; aqueous phase; Rat; cited from earlier work
NMDA receptor = conditions: read-out: IC50, inhibition of NMDA receptor currents; cited from earlier work
oocyte = assay: Cytotoxicity during oocyte electrophysiology studies; type: cell-based, Xenopus laevis
From the text: These compounds are not preferred. Other structures previously known to be highly toxic to animals or humans (such as silanes and boranes) are not preferred.

In the case of FC1C(F)C(F)(F)C(F)(F)C1(F)F (stereo not drawn) [1,1,2,2,3,3,4,5-octafluorocyclopentane], the “concentration causing loss of righting reflex” value (shortened to “concentration causing loss”) ([1]; 4 healthy Sprague-Dawley rats, mean±SD, inhaled) is reported as 3.3±0.4% of 1 atmosphere, the “excitement or coughing during anesthetic induction” value ([1]; rats) is reported as “without excitement or coughing” and the “time to awake and ambulatory after discontinuing the agent” value ([1]; rats) is reported as “less than 1 minute”. For the same compound, the “glycine receptor modulation (in words)” value (glycine receptors) was “potentiates”, the “GABAA receptor modulation (in words)” value [2] was “potentiates” and the “NMDA receptor modulation (in words)” value [3] was “no effect”. For the same compound, the “inhibitory potassium channel modulation (in words)” value [4] was “potentiates”.
With FC1C(F)(F)C(F)(F)OC1(F)C(F)(F)F (stereo not drawn) [2,2,3,3,4,5-hexafluorotetrahydro-5-(trifluoromethyl)-furan] the “concentration causing loss” value ([5]; mice) was 1-10%.
For ClC(Cl)Cl [Chloroform], the EC50 [6] is given as 1300 µM.
For Cc1cccc([C@H](C)c2cnc[nH]2)c1C [Dexmedetomidine], the EC50 [6] is listed as 7 µM.
In the case of CCOCC [Diethyl ether], the “ion channel modulation, TM3 versus TM4 receptors (FIG. 2)” value [7] is listed as “modulate both 3-transmembrane (TM3) and TM4 receptors” and the EC50 [6] is listed as 25000 µM.
In the case of CCOC(=O)c1cncn1[C@H](C)c1ccccc1 [Etomidate], the “ion channel modulation, TM3 versus TM4 receptors (FIG. 2)” value [7] is given as “modulate 4-transmembrane receptors (TM4) or neither receptor type” and the EC50 [6] is given as 3 µM.
For FC1CC(F)(F)C(F)(F)C1(F)F (stereo not drawn) [HFCP, 1,1,2,2,3,3,4-heptafluorocyclopentane], the “concentration causing loss” value ([5]; 4 healthy ND4 mice, mean±SD, inhaled) was 1.0±0.2% of 1 atmosphere, the “excitement or coughing during anesthetic induction” value ([5]; mice) was “no excitement or coughing” and the “time to awake after discontinuing administration” value ([5]; mice, after 2 hours of anesthesia) was “about 1 minute”. For the same compound, the “histopathology of heart, lung, kidney and liver tissues” value [8] was “no evidence of inflammation or toxicity”, the “glycine receptor modulation (in words)” value (glycine receptors) was “potentiates” and the “GABAA receptor modulation (in words)” value [2] was “potentiates”. The “NMDA receptor modulation (in words)” value [3] was “no effect”, the “stability in soda lime” value (Stability in soda lime) was “stable in soda lime” and the “inhibitory potassium channel modulation (in words)” value [4] was “potentiates”.
In the case of FC(F)(F)C(Cl)Br (stereo not drawn) [Halothane], the “ion channel modulation, TM3 versus TM4 receptors (FIG. 2)” value [7] is given as “modulate both 3-transmembrane (TM3) and TM4 receptors” and the EC50 [6] is given as 230 µM.
For FC(F)OC(Cl)C(F)(F)F (stereo not drawn) [Isoflurane], the “ion channel modulation, TM3 versus TM4 receptors (FIG. 2)” value [7] is given as “modulate both 3-transmembrane (TM3) and TM4 receptors” and the EC50 [6] is given as 290 µM.
For CNC1(c2ccccc2Cl)CCCCC1=O (stereo not drawn) [Ketamine], the EC50 [9] is listed as 2 µM, the “ion channel modulation, TM3 versus TM4 receptors (FIG. 2)” value [7] is listed as “modulate both 3-transmembrane (TM3) and TM4 receptors” and the “increase of GABAA receptor currents” value (GABAA receptor) is listed as 56%.
For COC(F)(F)C(Cl)Cl [Methoxyflurane], the “ion channel modulation, TM3 versus TM4 receptors (FIG. 2)” value [7] is listed as “modulate both 3-transmembrane (TM3) and TM4 receptors” and the EC50 [6] is listed as 210 µM.
With FC1(F)OC(F)(F)C(F)(F)C(F)(F)C1(F)F [Perfluorotetrahydropyran] the “concentration causing loss” value ([5]; mice) was 1-10%.
In the case of CC(C)c1cccc(C(C)C)c1O [Propofol], the EC50 [10] is given as 2 µM, the IC50 (NMDA receptor) is given as 160 µM and the “ion channel modulation, TM3 versus TM4 receptors (FIG. 2)” value [7] is given as “modulate both 3-transmembrane (TM3) and TM4 receptors”.
In the case of CCCC(C)C1(CC)C(=O)NC(=S)NC1=O (stereo not drawn) [Thiopental], the EC50 [9] is given as 25 µM.
For C1CCNC1 [pyrrolidine], the “cytotoxicity during oocyte electrophysiology studies” value (oocyte) was “cytotoxicity”.
For CCCCCCCCCCCO [undecanol], the “ion channel modulation, TM3 versus TM4 receptors (FIG. 2)” value [7] is listed as “modulate 4-transmembrane receptors (TM4) or neither receptor type”.
